Results taken from PMC10454728, “A Comparative Study on the Lysosomal Cation Channel TMEM175 Using Automated Whole-Cell Patch-Clamp, Lysosomal Patch-Clamp, and Solid Supported Membrane-Based Electrophysiology: Functional Characterization and High-Throughput Screening Assay Development” (International Journal of Molecular Sciences, 2023).
Values joined by “and” are separate entries in the source; they are usually repeats but may differ in a detail not shown here. Identical values can stand only once. “Also recorded” adds a separate entry of the source.

Columns and labels:
[1] = biological target: T1, TMEM175 (Homo sapiens, UniProt Q9BSA9); assay: SSME K+ flux compound assay on purified lysosomes overexpressing TMEM175 (SURFE2R 96SE); format: biochemical; settings: for Relative current / maximum potentiation, SSME: Imax of dose-response curve, baseline 100%, (50 µM)
T1 sequence (Q9BSA9 1-504): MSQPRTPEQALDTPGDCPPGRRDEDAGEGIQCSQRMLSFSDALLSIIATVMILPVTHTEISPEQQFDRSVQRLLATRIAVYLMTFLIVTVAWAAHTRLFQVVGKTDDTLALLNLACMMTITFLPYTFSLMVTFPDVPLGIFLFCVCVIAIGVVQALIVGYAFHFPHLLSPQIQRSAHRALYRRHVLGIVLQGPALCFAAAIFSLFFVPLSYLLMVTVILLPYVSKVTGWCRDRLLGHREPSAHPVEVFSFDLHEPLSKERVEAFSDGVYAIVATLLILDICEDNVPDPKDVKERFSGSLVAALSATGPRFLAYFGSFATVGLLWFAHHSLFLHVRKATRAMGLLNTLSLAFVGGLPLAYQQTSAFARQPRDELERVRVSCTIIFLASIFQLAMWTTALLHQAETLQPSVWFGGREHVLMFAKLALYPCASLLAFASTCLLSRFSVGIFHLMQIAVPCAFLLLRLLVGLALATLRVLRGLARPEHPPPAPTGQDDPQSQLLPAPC
Method: In brief, compound measurements using SSME are performed in a three-step process (Figure 6B). First, TMEM175-mediated K^+ translocation is measured through 50 mM K^+ concentration jumps. This represents the baseline current of TMEM175 activity (I0). […] Third, the activation through a 50 mM K^+ concentration jump is repeated, this time in the presence of the compound to record the modulated TMEM175 current (I). In this process, each individual sensor of the 96-well sensor plate is only exposed to a single concentration of the compound. The relative current amplitude I/I0 is used as a measure of the compound effect and averaged across sensors.
We applied 50 mM K^+ concentration jumps in the absence and presence of different compound concentrations to derive information about compound effects on K^+ flux through TMEM175; (B) Time dependence of recorded peak current amplitudes for the complete workflow, which involves multiple sequential measurements. […] The recording of each sensor well starts with the application of a control measurement, rinsing non-activating solution across the sensor (baseline recording). Afterwards, we performed three solution exchange measurements from 50 mM NaCl to 50 mM KCl to measure K^+ flux through TMEM175 (baseline TMEM175 current, I0). We then rinsed the sensor with non-activating solution containing the compound at a given concentration, followed by incubation of 15 min to equilibrate the sensors with the compound. Subsequently, the solution exchange from 50 mM NaCl to 50 mM KCl is repeated twice, but in the presence of the given compound concentration to determine the modulated peak current I. Afterwards, we repeated the measurement in the absence of the compound three times (wash-out) to recover the non-modulated TMEM175 current. We subtracted the average artifact current recorded with control lysosomes from I and I0 (Figure 1K), without considering off-target effects of the tested compound. […] Success rates were determined based on the QC criteria provided in the Methods section. […] We determined average values, AVGpos and AVGneg, and standard deviations, SDpos and SDneg, of the recorded peak currents. […] Error bars represent the SEM obtained from automated data analysis using DataControl96, based on variations of the currents obtained with the TMEM175 sample. Each compound concentration was recorded with at least N = 8 sensors. […] Imin was always fixed to 0 for inhibitors or 1 for enhancers, as indicated. […] A total of 50 µL of 0.1 mM octadecanethiol in isopropanol was added to each sensor well, following incubation for 30 min at room temperature to form an alkanethiol monolayer on the sensor surface. Subsequently, the sensors were washed twice with isopropanol and three times with ddH2O, before dry-tapping on a tissue. The subsequent process of sensor coating with lipid and lysosomes was carried out manually for the SURFE^2R N1 and automated with the SURFE^2R 96SE serving as a pipetting robot. In both cases, 1.5 µL of 7.5 mg/mL 1,2-diphytanoyl-sn-glycero-3-phosphocholine (DPhPC) in n-decane was added to the center of the circular gold surface, followed by the addition of 50 µL of non-activating solution to form the SSM. The composition of the non-activating solution was adjusted for each experiment (Table 2). […] SSM-coated 96-well sensor plates were stored at −80 °C before use.

[2] = biological target: T1, TMEM175; assay: Whole-cell automated patch-clamp (APC) Cs+ flux assay, SyncroPatch 384i, HEK293 overexpressing TMEM175; format: cell-based
Method: To validate the APC assay, we compared currents between TMEM175-overexpressing cells and control HEK293 UT cells. […] In our compound application protocol, which was used to evaluate compound potencies, we consistently administered tool compounds to assess their impact on TMEM175 activity (Figure 7C).
The voltage protocol generation and data collection were performed with PatchControl384 v1.9.0 and analyzed with DataControl384 v2.2.0. A multi-hole, medium resistance chip with four patch-clamp holes per well was used for recording.
DMSO remained constant at 0.2% and BSA at 0.05% in the external solution throughout the assay, if not stated otherwise.
The voltage protocol applied for the investigation of the tool compounds (Figure 7) consisted of a 500 ms ramp from −80 mV to +80 mV, followed by a 400 ms step from −80 mV to +80 mV before returning to the holding potential of 0 mV (Figure 7B). The maximum outward current amplitude obtained at +80 mV from the ramp section was used for analysis. To investigate the blinded test compounds (Figure 8), an alternative voltage protocol was applied. […] The maximum outward current amplitude obtained at 0 mV from the voltage step section was used for analysis. In both voltage protocols, voltage sweeps were repeated every 10 s and currents sampled at 10 kHz.
The application protocol for agonists consisted of two additions of extracellular physiological solution for a minimum of 3 min, followed by the external application of the test compound for a minimum of 2 min (Figure 7C).
Currents recorded after compound addition were normalized to the baseline current before compound addition, averaged, and plotted over the compound concentration to determine the EC50 and IC50 values.

[3] = tested on: TMEM175; settings: 100 µM, whole-cell configuration, +80 mV; ref [6]; cited from earlier work
[4] = biological target: T1, TMEM175; assay: SSME H+ flux assay (pH jumps) on TMEM175 lysosomes (SURFE2R N1); format: biochemical; settings: corresponding to ~pH 5; read-out: EC50 of H+ influx current vs Δc(H+)
From the text: To further investigate the capability of TMEM175 to translocate protons using SSME, we performed H^+ concentration or pH jumps using the SURFE^2R N1. The non-activating solution was set to pH 7.6, defining both the lysosomal and cytosolic pH before the start of the experiment. By exchanging the non-activating for the activating solution, we acidified the cytosolic solution and stimulated H^+ influx through TMEM175 (Figure 5A).
However, the application of pH jumps lead to significant artifact currents of positive magnitude, as observed with the control lysosomes (Figure 5C). These artifacts are a result of protons interacting with the lipid membranes and/or unknown H^+ leak pathways through the lysosomal membrane. To conclude pure TMEM175-related H^+ currents, we subtracted the artifact currents from the currents recorded with the TMEM175 sample. When plotting ΔpH against the artifact-corrected average TMEM175 net H^+ current, we obtain a close-to-linear correlation (Figure 5D).
For comparison with the I/c curve reported for K^+ (Figure 3E), we calculated the difference in H^+ concentration across the lysosomal membrane Δc = cH^out − cH^in, which correlates linearly with the passive H^+ flux J = PH+Δc according to Fick’s law.
We used H^+ concentration or pH jumps to measure H^+ flux through TMEM175. Non-activating solution was set to pH 7.6, while activating solution contained different pH values between pH 7.4 and pH 4.6; (B) Representative current traces induced by pH jumps on lysosomes overexpressing TMEM175. All current traces were recorded with the same sensor, starting from the lowest ΔpH. […] The remaining current mostly reflects the background (artifact) current after full block of TMEM175; (C) Representative current traces from the same experiment on control lysosomes. […] This represents the artifact current also underlying the currents recorded with the TMEM175 sample; (D) SEM and average, artifact-corrected, normalized peak currents from N = 4 sensors, reflecting the H^+ flux through TMEM175, solely driven by the pH gradient. […]

CCCCC/C=C\C/C=C\C/C=C\C/C=C\CCCC(=O)O [Arachidonic Acid, arachidonic acid]
Potency in SSME relative to APC (more potent in SSME) ([1]; EC50 APC / EC50 SSME): 40 fold | Relative current / maximum potentiation, SSME [1]: 168 ± 5% (50 µM) | Relative current / maximum potentiation, SSME ([1]; listed as arachidonic acid): 168 ± 5% | EC50 ([1]; tool enhancers, K+ flux, 50 mM K+ jump, pH 7.6, 0 mV, artifact-corrected, read-out: Half saturation (EC50), SSME): 2.3 µM and 2.25 µM | Relative current, APC ([2]; enhancer, (30 µM), relative to baseline current (100%)): 137 ± 6% (30 µM) | EC50 and maximum potentiation in the absence of BSA, APC ([2]; no BSA vs 0.05% BSA): did not affect; also recorded: unaltered | Maximum potentiation (increase in TMEM175 activity), APC ([2]; standard assay with 0.05% BSA): 34% | EC50 ([2]; tool compounds, Cs+ flux, outward current at +80 mV, 0.05% BSA, read-out: Half saturation (EC50), APC): 83 µM | Increase in K+ flux through TMEM175, literature [3]: 14 fold

[H+] [H^+]
EC50 [4]: 9.5 µM
